Data on one substance can be found in paper PMC6594751, “The mechanism of error induction by the antibiotic viomycin provides insight into the fidelity mechanism of translation” (eLife, 2019).

The test system of one experiment is mRNA translocation. The conditions noted are these: ref Holm et al., 2016; Modolell and Vázquez, 1977; cited from earlier work.
For experiment [1], the system named is 70S ribosomes displaying cognate (UUC) or near-cognate (CUC) codon in the A site. Description: GTP hydrolysis by EF-Tu in ternary complex (initial codon selection), quench-flow. Type of experiment: biochemical, E. coli. The source says:
To study the impact of viomycin on translational accuracy, we designed experiments to measure its effect on the kinetic efficiency ( kcat/KM ) of GTP hydrolysis by EF-Tu and peptide bond formation for both cognate and near-cognate codon-anticodon interactions. A reaction mixture containing varying concentrations of viomycin and Phe-tRNAGAAPhe in TC with EF-Tu·GTP was rapidly mixed in a quench-flow instrument with initiated 70S ribosomes displaying either cognate (UUC) or near-cognate (CUC) codons in the A site. For studying GTP hydrolysis, the TCs contained [^3H]GTP and the 70S ribosomes had non-radioactive fMet-tRNA^fMet in the P site, while for studying peptide bond formation the TCs contained non-radioactive GTP and the 70S ribosomes had f[^3H]Met-tRNA^fMet bound in the P site. The reactions were stopped at different times by addition of formic acid and the relative amounts of the reaction products were analyzed by ion-exchange chromatography ([^3H]GDP) or RP-HPLC (f[^3H]Met-Phe) with on-line radiation detection.
All experiments were performed at 37°C in HEPES-polymix buffer (95 mM KCl, 5 mM NH4Cl, 0.5 mM CaCl2, 8 mM putrescine, 1 mM spermidine, 5 mM Mg(OAc)2, 1 mM dithioerythritol and 5 mM HEPES pH 7.5). All reaction mixes contained 10 mM phosphoenolpyruvate (PEP), 1 µg/ml pyruvate kinase (PK) and 0.1 µg/ml myokinase (MK). His-tagged initiation factors IF1, IF2 and IF3, elongation factor Ts, and phenylalanine and leucine aminoacyl tRNA-synthetases were purified using nickel-affinity chromatography (HisTrap GE Healthcare). Wild-type elongation factor Tu was prepared as in [Ehrenberg et al. (1990)]. All protein concentrations were determined using the Bradford assay. Ribosomes (E. coli MRE600) and f[^3H]Met-tRNA^fMet were prepared according to [Antoun et al. (2004)]; ribosome concentration was determined spectrophotometrically. XR7 mRNAs with coding sequences AUG-UUC, AUG-CUC, AUG-UAC and AUG-UUA were prepared as in [Borg and Ehrenberg (2015)], see theGV Appendix I for full mRNA sequences. tRNA^Phe was prepared as in [Holm et al. (2016)]. [^3H]Met and [^3H]GTP were from Perkin-Elmer, viomycin was from USP, all other chemicals were from either Merck or Sigma-Aldrich.
Two mixtures were prepared. The ribosome mixture contained 70S ribosomes (1.0–2.0 µM), IF1, IF2 and IF3 (2 µM each), fMet-tRNA^fMet(1.5–3.0 µM), mRNA (3 µM), GTP (1 mM) and ATP (1 mM). The TC mixture contained EF-Tu (0.3–0.6 µM), phenylalanine (200 µM), PheRS (0.5 µM), tRNA^Phe (2 µM), viomycin (0–2000 µM), [^3H]GTP (0.3–0.6 µM) and ATP (2 mM). After 15 min incubation at 37°C, equal volumes of the two mixes were rapidly mixed and the reaction quenched at different time points with formic acid (17% final concentration) using a quench-flow instrument (RQF-3 KinTek corp.). After quenching, the samples were centrifuged at 20,800 g. The supernatant, containing the [^3H]GTP and [^3H]GDP was analyzed by anion exchange chromatography with on-line scintillation counting (β-RAM model 4 IN/US systems). A Mono-Q GL column (GE Healthcare) was used and the mobile phase was a multistep gradient of 0–2 M NaCl in 20 mM Tris (pH 7.5).
Reaction rates were estimated by fitting of single exponential functions to the experimental time courses except for the GTP hydrolysis reactions without viomycin on near-cognate codons which were analyzed as in [Johansson et al. (2012)]. kcat/KM values were estimated by fitting of the Michaelis-Menten equation to plots of reaction rates versus concentration. […]

The test system of experiment [2] is peptidyl-tRNA in the ribosomal A site. The conditions noted are these: ref Holm et al., 2016; Peske et al., 2004; cited from earlier work.
For the next experiment, the system named is ribosome. The conditions noted are these: ref Holm et al., 2016; cited from earlier work. The source says:
From these structures it seems likely that association of viomycin to the ribosome requires bases A1492 and A1493 in their flipped-out conformation and that the presence of viomycin on the ribosome will effectively block the monitoring bases from re ...

In the next experiment the test system is tRNA selection. More on the design: method as in Marrero et al., 1980. The conditions noted are these: ref Marrero et al., 1980; cited from earlier work.

viomycin: the “effect on rate of mRNA translocation” value in the experiment with mRNA translocation is reported as “reduces the rate of mRNA translocation”. In experiment [1] (CUC vs UUC, 1 mM viomycin vs absence of viomycin), the “reduction in the accuracy of initial codon selection” value is on record as 170 fold. For the same substance, the “kcat/KM of cognate GTP hydrolysis (average over 0 to 1 mM viomycin)” value in experiment [1] (cognate UUC codon, Phe-tRNA^Phe TC, viomycin 0 to 1 mM, HEPES-polymix pH 7.5, 37°C, error SEM) came out at 4.1e+07 ± 600000 M⁻¹ s⁻¹. For the same substance, the “effect of viomycin on kcat/KM of cognate GTP hydrolysis” value in experiment [1] (cognate UUC codon, viomycin 0 to 1 mM, 37°C) is on record as “did not change with increasing viomycin concentration”. In addition, the “kcat/KM of near-cognate GTP hydrolysis” value in experiment [1] (near-cognate CUC codon, 1 mM viomycin (0.053 ± 0.005 in the absence of viomycin), HEPES-polymix pH 7.5, 37°C, error SEM) came to 9.2e+06 ± 700000 M⁻¹ s⁻¹. The Ki in experiment [1] (tRNA^Phe(GAA) reading near-cognate codon CUC, fit of Equation 4 (Figure 1B), 37°C, read-out: KI (viomycin concentration at which accuracy has decreased to two), from GTP hydrolysis) turned out to be 3.1 ± 0.2 mM. In experiment [2], the “stabilization of peptidyl-tRNA in the ribosomal A site” value is reported as “strongly stabilize peptidyl-tRNA in the ribosomal A site”. In addition, the “effect of A-site-bound tRNA on affinity of viomycin for the ribosome” value in the experiment on ribosome is “A-site-bound tRNA greatly increases the affinity of viomycin for the ribosome”. For the same substance, the “effect on fidelity of tRNA selection” value with tRNA selection is given as “impairs the fidelity of tRNA selection”.
